The subject of series [1] is SARS-CoV-2. Put plainly: microbe, parasite or virus in culture. The format is cell-based. The note with it: for EC50: calculated using virus production at different drug concentrations.
Series [2] deals with SARS-CoV-2. Put plainly: Membrane fusion (CPE, syncytium formation) and fusion index of infected VeroE6/TMPRSS2 cells. The conditions noted are these: for Membrane fusion (CPE caused by viral infection): MOI 0.01, 24 h. The format is cell-based. On the procedure: Figure 2 Pin1 inhibitor H-77 inhibits SARS-CoV-2 proliferation in a concentration-dependent manner. VeroE6/TMPRSS2 cells were pretreated with the indicated concentrations of H-77 for 2 h, and were subjected to SARS-CoV-2 infection (MOI of 0.01) followed by incubation for 24 h in the presence of the same concentrations of H-77. (A) Western blotting of cell lysates (Duplicate in the figure) with SARS-CoV-2 N, Pin1, and actin antibodies. Full-length blots are presented in Supplementary Fig. 4. (B) vRNA copies contained in 5 µL of the supernatant were quantified by RT-qPCR using authorized SARS-CoV-2 N primers (n = 3). (C) Fusion index calculated by counting numbers of cells and nuclei of infected cells after Giemsa straining. Approximately 100 nuclei and cell number per field were counted for each of five fields. Error bars indicate standard deviation. *P < 0.05, **P < 0.01, Mann–Whitney U test, compared with 0 µM (DMSO). (D) Representative images of SARS-CoV-2-infected VeroE6/TMPRSS2 cells at 24 h post-infection with the indicated concentrations of H-77.
The cells were then washed with PBS, fixed with methanol, and stained with Giemsa staining solution. The fusion index was calculated as [1-(number of cells/number of nuclei)] as described previously. Approximately 100 nuclei and cell number per field were counted, and the average fusion index of five fields was calculated.

The test system of a further series is Pin1. Also on record: method as in PMID 25849135. The conditions noted are these: cited from earlier work.
The subject of a further series is FKBP. Also on record: method as in PMID 25849135. The conditions noted are these: cited from earlier work.
The subject of the next series is cyclophilin. Details: method as in PMID 25849135. The note with it: cited from earlier work.
The target of a further series is recombinant Pin1 protein (Homo sapiens, UniProt Q13526). Put plainly: In vitro PPIase assay using recombinant Pin1 protein (method of Janowski et al., Eurofins Selcia). The format is biochemical. The note with it: for inhibition at 2 µM: concentration 2 µM; for inhibition at 20 µM: concentration 20 µM.
Series [3] deals with SARS-CoV-2. The format is cell-based. The note with it: for SARS-CoV-2 proliferation: MOI 0.01, harvested 24 h after infection.
The mark [4] stands for this setting: Severe acute respiratory syndrome coronavirus 2, VeroE6/TMPRSS2, read-out: EC50 (50% effective concentration, SARS-CoV-2 proliferation), VeroE6/TMPRSS2 cells.
The mark [5] stands for this setting: 10 µM from 2 h before infection, 24 h after infection.
The mark [6] stands for this setting: Severe acute respiratory syndrome coronavirus 2, VeroE6/TMPRSS2 cells, read-out: EC50 (50% effective concentration, SARS-CoV-2 proliferation).

Where two headings read alike, the source gives them in different places.

Sequence of recombinant Pin1 protein (Q13526 whole entry, species assumed): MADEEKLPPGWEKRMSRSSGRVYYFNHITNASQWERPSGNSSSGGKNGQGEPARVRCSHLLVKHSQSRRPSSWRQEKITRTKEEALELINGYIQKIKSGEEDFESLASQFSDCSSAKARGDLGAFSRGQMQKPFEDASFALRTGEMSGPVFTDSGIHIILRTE

Take `CC1=C(/C=C/C(C)=C/C=C/C(C)=C/C(=O)O)C(C)(C)CCC1` [ATRA, all-trans retinoic acid, reference compound]: the EC50 in the series with SARS-CoV-2 [1] (setting [4]) is 17.9 µM. In addition, in the series with SARS-CoV-2 [1] (concentration-dependent, pretreated 2 h, MOI 0.01, 24 h), the “SARS-CoV-2 protein and viral RNA levels” value is on record as “marked reductions”. The “CPE of SARS-CoV-2” value in the series on SARS-CoV-2 [2] (VeroE6/TMPRSS2 cells) is reported as “alleviated”. The “Activity of Pin1” value with Pin1 is on record as “inhibits”. Moreover, in the series with FKBP, the “Activity of FKBP” value is reported as “does not affect”. Moreover, in the series with cyclophilin, the Activity of cyclophilin result was “does not affect”.

The term inhibition denotes the change of the read-out against control, counted positive when it falls. Turning to `O=C(Nc1ccc(OCc2ccccc2)cc1C(=O)O)c1ccc2ccccc2c1` [H-77], the EC50 in the series on SARS-CoV-2 [1] (setting [4]) was below 5 µM; in the series on SARS-CoV-2 [1] (read-out: EC50 (50% effective concentration, SARS-CoV-2 proliferation), VeroE6/TMPRSS2 cells) it was 3.2 µM. The inhibition at 2 µM on recombinant Pin1 protein was found to be 67%. Moreover, the inhibition at 20 µM at recombinant Pin1 protein came to 82%. In addition, the figures for the “Membrane fusion (CPE caused by viral infection)” value with SARS-CoV-2 [2] (concentrations above 7.5 μM) and in the series with SARS-CoV-2 [2] (drug concentration increased to 5 μM) were “almost absent” and “less apparent”, respectively. Further, the results for the SARS-CoV-2 proliferation result in the series on SARS-CoV-2 [3] (10 µM added 2 h after infection) and with SARS-CoV-2 [3] (10 µM added 6 h after infection) were “almost completely blocked” and “weaker but still significant inhibitory effect”, respectively. The “Amount of genomic RNA released from the cells (vRNA in supernatant)” value in the series on SARS-CoV-2 [3] (setting [5]) was “significantly reduced”. Also, the “Intracellular viral N mRNA” value with SARS-CoV-2 [3] (setting [5]) is “significantly reduced”.

Take `O=C(O)[C@@H](Cc1ccc2ccccc2c1)OC(=O)n1c2ccccc2c2ccccc21` [H-175]: the EC50 with SARS-CoV-2 [1] (setting [6]) was 12 µM. Also, on recombinant Pin1 protein, the inhibition at 20 µM was determined as 89%.

Take `O=C(Nc1ccc(OCc2ccccc2)cc1C(=O)O)c1cccc(Oc2ccccc2)c1` [H-363]: in the series on SARS-CoV-2 [1] (setting [6]), the EC50 is 6.3 µM. The inhibition at 20 µM on recombinant Pin1 protein was found to be 82%.

For the compound `O=C(Nc1ccc(OCc2ccc3ccccc3c2)cc1C(=O)O)c1ccc2ccccc2c1` [H-371], the EC50 in the series with SARS-CoV-2 [1] (setting [6]) was 4.2 µM. At recombinant Pin1 protein, the inhibition at 2 µM came out at 80%.

On to `O=C(O)c1cc(NC(=O)n2c3ccccc3c3ccccc32)cc(NC(=O)n2c3ccccc3c3ccccc32)c1` [H-596], for which the EC50 in the series with SARS-CoV-2 [1] (setting [6]) is 5.2 µM. For the same compound, on recombinant Pin1 protein (concentration 1 µM), the inhibition at 1 µM worked out at 13%. The inhibition at 10 µM at recombinant Pin1 protein (concentration 10 µM) was found to be 101%.

Regarding `O=C1C=CC(=O)c2c(O)cccc21` [Juglone], the Cell survival result in the series with VeroE6/TMPRSS2 cells was “unable to survive”.

(Values after article PMC8448864, “Prolyl isomerase Pin1 plays an essential role in SARS-CoV-2 proliferation, indicating its possibility as a novel therapeutic target” (Scientific Reports, 2021).)
